Where a name gives a salt, the structure may show the parent alone.
target: T1, HCV polymerase (Hepatitis C virus genotype 1b, UniProt P26663); assay: biochemical; set-up: species or system HCV BK strain; conditions: not given
T1 construct: a region encoding NS5B (J Virol 1991 March, 65(3), 1105-13, 544 amino acids after deletion of 47 amino acids on the C-terminal); 6xHis (C); made in house; host or cells: Escherichia coli
In short: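 Recombinant HCV BK-strain NS5B (C-terminal 47 aa deleted, His6-tagged, E. coli), 0.5 μg/ml, run with 5 μg/ml in vitro-transcribed RNA template (polyU/3′X), ATP/GTP/CTP 50 μM, UTP 2 μM plus [3H]UTP, pH 7.5, 25° C, 90 min. TCA-precipitated RNA counted by scintillation; IC50 from activity with vs without compound.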

T1 sequence (P26663 2420-2963): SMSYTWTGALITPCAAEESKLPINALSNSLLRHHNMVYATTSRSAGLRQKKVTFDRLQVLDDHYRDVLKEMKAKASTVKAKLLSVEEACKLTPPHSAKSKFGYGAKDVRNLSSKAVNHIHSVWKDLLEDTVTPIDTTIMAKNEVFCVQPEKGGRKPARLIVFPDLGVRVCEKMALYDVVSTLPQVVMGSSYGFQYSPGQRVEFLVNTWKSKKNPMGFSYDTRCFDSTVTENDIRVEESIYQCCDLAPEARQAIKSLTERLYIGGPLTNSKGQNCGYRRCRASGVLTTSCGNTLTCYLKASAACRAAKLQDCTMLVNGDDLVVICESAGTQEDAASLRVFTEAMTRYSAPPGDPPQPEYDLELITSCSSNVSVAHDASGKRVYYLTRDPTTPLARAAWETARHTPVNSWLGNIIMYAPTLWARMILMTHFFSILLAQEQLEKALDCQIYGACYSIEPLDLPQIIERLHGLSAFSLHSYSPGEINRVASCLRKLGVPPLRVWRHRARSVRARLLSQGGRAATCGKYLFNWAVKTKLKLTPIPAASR

First: COC(=O)C(CN1CCC(O)CC1)NC(=O)c1ccc2c(C3CCCCC3)c3n(c2c1)CCOc1cc(OC)ccc1-3 (stereo not shown) [Example 2-379, methyl 2-[(12-cyclohexyl-3-methoxy-6,7-dihydro-5-oxa-7a-azadibenzo[a,e]azulene-9-carbonyl)amino]-3-(4-hydroxypiperidin-1-yl)propionate monohydrochloride]
Second: COC(=O)C(Cc1ccc(CO)cc1)NC(=O)c1ccc2c(C3CCCCC3)c3n(c2c1)CCOc1cc(OC)ccc1-3 (stereo not shown) [Example 2-393, methyl 2-[(12-cyclohexyl-3-methoxy-6,7-dihydro-5-oxa-7a-azadibenzo[a,e]azulene-9-carbonyl)amino]-3-(4-hydroxymethylphenyl)propionate]
The IC50 of the first is higher: 0.1 to 1 µM for the first, < 0.1 µM for the second.

`COc1ccc2c(c1)OCCn1c-2c(C2CCCCC2)c2ccc(C(=O)NC(C)(C)c3nc4cc(F)ccc4[nH]3)cc21` [Example 2-380, N-[1-(5-fluoro-1H-benzimidazol-2-yl)-1-methylethyl]-12-cyclohexyl-3-methoxy-6,7-dihydro-5-oxa-7a-azadibenzo[a,e]azulene-9-carboxamide] and `CNC(=O)c1ccc2[nH]c(C(C)(C)NC(=O)c3ccc4c(C5CCCCC5)c5n(c4c3)CCOc3cc(OC)ccc3-5)nc2c1` [Example 2-396, N-[1-methyl-1-(5-methylcarbamoyl-1H-benzimidazol-2-yl)ethyl]-12-cyclohexyl-3-methoxy-6,7-dihydro-5-oxa-7a-azadibenzo[a,e]azulene-9-carboxamide] cannot be ordered by IC50: < 0.1 µM for the first, < 0.1 µM for the second.

`COc1ccc2c(c1)OCCn1c-2c(C2CCCCC2)c2ccc(C(=O)N[C@@H](Cc3ccc(O)cc3)c3nccs3)cc21` [Example 2-381, N—(S)-[2-(4-hydroxyphenyl)-1-(thiazol-2-yl)ethyl]-12-cyclohexyl-3-methoxy-6,7-dihydro-5-oxa-7a-azadibenzo[a,e]azulene-9-carboxamide] and `COc1ccc2c(c1)OCCn1c-2c(C2CCCCC2)c2ccc(C(=O)N[C@@H](Cc3ccc(O)cc3)c3nc(C)no3)cc21` [Example 2-388, N—[(S)-2-(4-hydroxyphenyl)-1-(3-methyl-1,2,4-oxadiazol-5-yl)ethyl]-12-cyclohexyl-3-methoxy-6,7-dihydro-5-oxa-7a-azadibenzo[a,e]azulene-9-carboxamide] cannot be ordered by IC50: < 0.1 µM for the first, < 0.1 µM for the second.

`CNC(=O)COc1ccc(C[C@H](NC(=O)c2ccc3c(C4CCCCC4)c4n(c3c2)CCOc2cc(OC)ccc2-4)C(=O)OC)cc1` [Example 2-382, methyl (S)-2-[(12-cyclohexyl-3-methoxy-6,7-dihydro-5-oxa-7a-azadibenzo[a,e]azulene-9-carbonyl)amino]-3-[4-(methylcarbamoylmethoxy)phenyl]propionate] and `COC(=O)[C@H](Cc1ccc(OCC(=O)N(C)C)cc1)NC(=O)c1ccc2c(C3CCCCC3)c3n(c2c1)CCOc1cc(OC)ccc1-3` [Example 2-383, methyl (S)-2-[(12-cyclohexyl-3-methoxy-6,7-dihydro-5-oxa-7a-azadibenzo[a,e]azulene-9-carbonyl)amino]-3-[4-(dimethylcarbamoylmethoxy)phenyl]propionate] cannot be ordered by IC50: < 0.1 µM for the first, < 0.1 µM for the second.

`CNC(=O)[C@H](Cc1ccc(NC(=O)OC)cc1)NC(=O)c1ccc2c(C3CCCCC3)c3n(c2c1)CCOc1cc(OC)ccc1-3` [Example 2-384, methyl (4-{(S)-2-[(12-cyclohexyl-3-methoxy-6,7-dihydro-5-oxa-7a-azadibenzo[a,e]azulene-9-carbonyl)amino]-2-(methylcarbamoyl)ethyl}phenyl)carbamate] and `COC(=O)[C@H](Cc1ccc(NC(=O)N(C)C)cc1)NC(=O)c1ccc2c(C3CCCCC3)c3n(c2c1)CCOc1cc(OC)ccc1-3` [Example 2-391, methyl (S)-2-[(12-cyclohexyl-3-methoxy-6,7-dihydro-5-oxa-7a-azadibenzo[a,e]azulene-9-carbonyl)amino]-3-[4-(3,3-dimethylureido)phenyl]propionate] cannot be ordered by IC50: < 0.1 µM for the first, < 0.1 µM for the second.

`COc1ccc2c(c1)OCCn1c-2c(C2CCCCC2)c2ccc(C(=O)NC(C)(C)c3nc4cc(C(=O)N5CCC(O)CC5)ccc4[nH]3)cc21` [Example 2-386, N-{1-[5-(4-hydroxypiperidine-1-carbonyl)-1H-benzimidazol-2-yl]-1-methylethyl}-12-cyclohexyl-3-methoxy-6,7-dihydro-5-oxa-7a-azadibenzo[a,e]azulene-9-carboxamide] and `COc1ccc2c(c1)OCCn1c-2c(C2CCCCC2)c2ccc(C(=O)NC(C)(C)c3nc4cc(C(=O)NCCO)ccc4[nH]3)cc21` [Example 2-390, N-{1-[5-(2-hydroxyethylcarbamoyl)-1H-benzimidazol-2-yl]-1-methylethyl}-12-cyclohexyl-3-methoxy-6,7-dihydro-5-oxa-7a-azadibenzo[a,e]azulene-9-carboxamide] cannot be ordered by IC50: < 0.1 µM for the first, < 0.1 µM for the second.

`COc1ccc2c(c1)OCCn1c-2c(C2CCCCC2)c2ccc(C(=O)N[C@@H](Cc3ccc(O)cc3)C(=O)NCCO)cc21` [Example 2-387, N—[(S)-1-(2-hydroxyethylcarbamoyl)-2-(4-hydroxyphenyl)ethyl]-12-cyclohexyl-3-methoxy-6,7-dihydro-5-oxa-7a-azadibenzo[a,e]azulene-9-carboxamide] and `COc1ccc2c(c1)OCCn1c-2c(C2CCCCC2)c2ccc(C(=O)N[C@@H](Cc3ccc(O)cc3)C(=O)NCCN(C)C)cc21` [Example 2-389, N—[(S)-1-(2-dimethylaminoethylcarbamoyl)-2-(4-hydroxyphenyl)ethyl]-12-cyclohexyl-3-methoxy-6,7-dihydro-5-oxa-7a-azadibenzo[a,e]azulene-9-carboxamide] cannot be ordered by IC50: < 0.1 µM for the first, < 0.1 µM for the second.

`COC(=O)[C@H](Cc1ccc(OCCCO)cc1)NC(=O)c1ccc2c(C3CCCCC3)c3n(c2c1)CCOc1cc(OC)ccc1-3` [Example 2-392, methyl (S)-2-[(12-cyclohexyl-3-methoxy-6,7-dihydro-5-oxa-7a-azadibenzo[a,e]azulene-9-carbonyl)amino]-3-[4-(3-hydroxypropoxy)phenyl]propionate] and `COc1ccc2c(c1)OCCn1c-2c(C2CCCCC2)c2ccc(C(=O)NC3(C(=O)Nc4ccc(C(=O)O)cc4)CCN(C)CC3)cc21` [Example 2-397, 4-([4-[(12-cyclohexyl-3-methoxy-6,7-dihydro-5-oxa-7a-azadibenzo[a,e]azulene-9-carbonyl)amino]-1-methylpiperidine-4-carbonyl)amino)benzoic acid] cannot be ordered by IC50: < 0.1 µM for the first, < 0.1 µM for the second.

`COc1ccc2c(c1)OCCn1c-2c(C2CCCCC2)c2ccc(C(=O)NC(C)(C)c3nc4cccnc4[nH]3)cc21` [Example 2-394, N-[1-(3H-imidazo[4,5-b]pyridin-2-yl)-1-methylethyl]-12-cyclohexyl-3-methoxy-6,7-dihydro-5-oxa-7a-azadibenzo[a,e]azulene-9-carboxamide] and `COc1ccc2c(c1)OCCn1c-2c(C2CCCCC2)c2ccc(C(=O)NC(C)(C)c3nc4cc(C(=O)O)ccc4n3CCN3CCOCC3)cc21` [Example 2-395, 2-{1-[(12-cyclohexyl-3-methoxy-6,7-dihydro-5-oxa-7a-azadibenzo[a,e]azulene-9-carbonyl)amino]-1-methylethyl]-1-[2-(morpholin-4-yl)ethyl]-1H-benzimidazole-5-carboxylic acid] cannot be ordered by IC50: < 0.1 µM for the first, < 0.1 µM for the second.

same assay, conditions: 25° C., 90 min; [5,6-3H]UTP incorporation into RNA; read-out: HCV polymerase inhibitory activity IC50

For `COc1ccc2c(c1)OCCn1c-2c(C2CCCCC2)c2ccc(C(=O)N[C@@H](Cc3c[nH]c4ccc(O)cc34)c3csc(C)n3)cc21` [Example 2-385, [(S)-2-(5-hydroxy-1H-indol-3-yl)-1-(2-methylthiazol-4-yl)ethyl]-12-cyclohexyl-3-methoxy-6,7-dihydro-5-oxa-7a-azadibenzo[a,e]azulene-9-carboxamide], the IC50 was < 0.1 µM.

Source: patent US20070049593A1 (priority 2004, published 2007)
